Test results from publication PMC3767324, “Synthesis, Characterization, and BSA Binding Studies of Some New Benzamides Related to Schiff Base” (ISRN Organic Chemistry, 2013).
Converted amounts (≈) assume the structure as drawn. Where two headings read alike, the source gives them in different places.

Columns and labels:
[1] = DPPH free radical scavenging activity; conditions: DPPH 0.1 mM, absorbance at 517 nm; triplicate, mean ± SD
Procedure: The capacity to scavenge the stable free radical 2,2-diphenyl-1-picrylhydrazyl (DPPH) was monitored according to the Blois method. The test samples (10–100 μL) were mixed with 1 mL of DPPH (0.1 mM) solution and filled up with methanol to a final volume of 4 mL. Absorbance of the resulting solution was measured at 517 nm in a visible spectrophotometer (Model 166, Systronics, India). The free radical scavenging rate of the reaction solution was calculated as a percentage (%) of DPPH decolouration using the equation (1) I(%)=(Ablank−Asample/Ablank)×100, where A blank is the absorbance of the control reaction mixture excluding the test compounds, and A sample is the absorbance of the test compounds. Radical scavenging potential was expressed as IC50 value, which represents the sample concentration at which 50% of the DPPH radicals were scavenged. Tests were carried out in triplicate and the results were expressed as mean values ± standard deviations.
DPPH radical scavenging activity evaluation is a standard assay in antioxidant activity studies and offers a rapid technique for screening the radical scavenging activity of specific compounds [24]. The free radical scavenging activity of newly synthesized compounds was tested by their ability to bleach the stable radical DPPH. The activity was monitored by following the absorption at 517 nm in a visible spectrophotometer. In the presence of any free radical scavenger, this odd electron pairs up and causes the diminishing of absorption band which is proportional to the number of electrons taken up. The activity was studied at different concentrations for each compound. […] Resulting from a color change from purple to yellow the absorbance decreased when the antioxidant molecule can quench DPPH free radical through donation of hydrogen atom or by electron donating to form a stable DPPH molecule.

[2] = tested on: Aspergillus flavus (NCIM 524); assay: agar disc diffusion, zone of inhibition; format: cell-based; conditions: A. flavus, discs 6 mm, test compounds 100 µg/mL in DMSO, standards 10 µg/disc, 28°C 48 h, average of three replicates; for zone of inhibition at 100 µg/mL: Aspergillus flavus, NCIM524, read-out: zone of inhibition
Procedure: (§1) The in vitro antimicrobial screening effects of the compounds (3 and 5a–j) were individually tested against a panel of bacteria and fungi including Staphylococcus aureus (NCIM 5021), Bacillus subtilis (NCIM 2999), Pseudomonas aeruginosa (NCIM 5029), Escherichia coli (NCIM 2574), Candida. albicans (NCIM 3471), and Aspergillus flavus (NCIM 524). Microbial strains were cultured overnight at 37°C in nutrient and potato dextrose agar medium. All the pure microbial strains were obtained from National Chemical Laboratory (NCL), Pune, India.
(§2) The antibacterial activity of compounds was determined by agar disc diffusion method. Briefly, a suspension of tested bacterial strains was spread on the nutrient agar medium and potato dextrose agar for fungi. The discs (6 mm in diameter) impregnated with test chemicals each dissolved in concentration (100 μg/mL in DMSO) were placed on the inoculated agar and these plates were kept at 4°C for 2 h. The plate was incubated at 37°C for 24 h in case of bacteria and 48 h at 28°C in case of fungi. streptomycin (10 μg/disc) and fluconazole (10 μg/disc) were used as the standards for antibacterial and antifungal activity, respectively. All the samples were performed in triplicate and the zone of inhibition was measured in millimeters.

A. niger [3] = assay: agar disc diffusion, zone of inhibition; format: cell-based; conditions: A. niger, discs 6 mm, test compounds 100 µg/mL in DMSO, standards 10 µg/disc, 28°C 48 h, average of three replicates; for zone of inhibition at 100 µg/mL: Aspergillus niger, read-out: zone of inhibition
Procedure: [The procedure below names another organism; the source lists this organism under the same test.] as §1, §2

[4] = tested on: Escherichia coli (NCIM 2574); assay: agar disc diffusion, zone of inhibition; format: cell-based; conditions: E. coli, discs 6 mm, test compounds 100 µg/mL in DMSO, standards 10 µg/disc, 37°C 24 h, average of three replicates; for zone of inhibition at 100 µg/mL: Escherichia coli, NCIM2574, read-out: zone of inhibition
Procedure: as §1, §2

[5] = tested on: Staphylococcus aureus (NCIM 5021); assay: agar disc diffusion, zone of inhibition; format: cell-based; conditions: S. aureus, discs 6 mm, test compounds 100 µg/mL in DMSO, standards 10 µg/disc, 37°C 24 h, average of three replicates; for zone of inhibition at 100 µg/mL: Staphylococcus aureus, NCIM5021, read-out: zone of inhibition
Procedure: as §1, §2

[6] = tested on: Pseudomonas aeruginosa (NCIM 5029); assay: agar disc diffusion, zone of inhibition; format: cell-based; conditions: P. aeruginosa, discs 6 mm, test compounds 100 µg/mL in DMSO, standards 10 µg/disc, 37°C 24 h, average of three replicates; for zone of inhibition at 100 µg/mL: Pseudomonas aeruginosa, NCIM5029, read-out: zone of inhibition
Procedure: as §1, §2

[7] = tested on: Bacillus subtilis (NCIM 2999); assay: agar disc diffusion, zone of inhibition; format: cell-based; conditions: B. subtilis, discs 6 mm, test compounds 100 µg/mL in DMSO, standards 10 µg/disc, 37°C 24 h, average of three replicates; for zone of inhibition at 100 µg/mL: Bacillus subtilis, NCIM2999, read-out: zone of inhibition
Procedure: as §1, §2

[8] = tested on: Aspergillus flavus (NCIM 524); assay: minimum inhibitory concentration by dilution method; format: cell-based; conditions: A. flavus, dilution method, average of three replicates
Procedure: as §1
(§3) The minimum inhibitory concentration of the synthesized compounds was determined by dilution method. The compounds were dissolved and then diluted using DMSO; two-fold serial concentrations of the compounds were employed to determine the MIC. In this method, the test concentrations of chemically synthesized compounds were made from 5 to 125 μg/mL.

A. niger [9] = assay: as above; format: cell-based; conditions: A. niger, dilution method, average of three replicates
Procedure: [The procedure below names another organism; the source lists this organism under the same test.] as §1, §3

[10] = tested on: Escherichia coli (NCIM 2574); assay: as above; format: cell-based; conditions: E. coli, dilution method, average of three replicates
Procedure: as §1, §3

[11] = tested on: Staphylococcus aureus (NCIM 5021); assay: as above; format: cell-based; conditions: S. aureus, dilution method, average of three replicates
Procedure: as §1, §3

[12] = tested on: Pseudomonas aeruginosa (NCIM 5029); assay: as above; format: cell-based; conditions: P. aeruginosa, dilution method, average of three replicates
Procedure: as §1, §3

[13] = tested on: Bacillus subtilis (NCIM 2999); assay: as above; format: cell-based; conditions: B. subtilis, dilution method, average of three replicates
Procedure: as §1, §3

[14] = superoxide radical scavenging assay (NBT, xanthine-xanthine oxidase system); format: biochemical; conditions: NBT reduction, pH 7.8, 560 nm, three replicates
Procedure: Superoxide radical scavenging activity was measured as described by Kovala-Demertzi et al., (2004). The assay is based on the reduction of nitroblue tetrazolium (NBT) by superoxide ions generated by the xanthine-xanthine oxidase system (X–XO). The reaction system contained 0.2 mM xanthine and 0.6 mM NBT in 0.1 M phosphate buffer, pH 7.8. The tested compounds were dissolved in methanol. The reaction was started by addition of XO (0.07 U mL^−1), an activity which allowed to yield the absorbance change between 0.03 and 0.04 per minute, at 560 nm. The extent of NBT reduction was followed spectrophotometrically, by measuring the increase of the absorbance at 560 nm. All the experiments were replicated three times. The IC50 of each compound was defined as the concentration which inhibited 50% of the NBT reduction by O2 ^•− produced in the X–XO system.
Superoxide anion radical is normally initially formed, and its effects can be magnified because it produces other kinds of free radicals and oxidizing agents. The enzymatic superoxide anion radical was generated by the xanthine/xanthine oxidase reaction system. The production of superoxide was estimated by the nitroblue tetrazolium method. […] Differently, in the m-position, methoxy and hydroxyl groups act as an electron-withdrawing properties, ([…]), which are possible for providing a destabilizing effect.

[15] = Aspergillus flavus, NCIM524, read-out: MIC
[16] = Aspergillus niger, read-out: MIC
[17] = Escherichia coli, NCIM2574, read-out: MIC
[18] = Staphylococcus aureus, NCIM5021, read-out: MIC
[19] = Pseudomonas aeruginosa, NCIM5029, read-out: MIC
[20] = Bacillus subtilis, NCIM2999, read-out: MIC

Row | IC50 DPPH [1] | IC50 Superoxide [14] | MIC [8, 15] | MIC (A. niger [9]; [16]) | MIC [10, 17] | MIC [11, 18] | MIC [12, 19] | MIC [13, 20] | SMILES | zone of inhibition at 100 µg/mL [2] | zone of inhibition at 100 µg/mL (A. niger [3]) | zone of inhibition at 100 µg/mL [4] | zone of inhibition at 100 µg/mL [5] | zone of inhibition at 100 µg/mL [6] | zone of inhibition at 100 µg/mL [7] | also measured
1 | 12.6 ± 0.43 µg/mL (≈ 71.5 µM) | – | – | – | – | – | – | – | O=C1O[C@H]([C@@H](O)CO)C(O)=C1O [AA, Ascorbic acid, reference compound] | – | – | – | – | – | – | –
2 | 48.9 ± 0.11 µg/mL (≈ 109 µM) | 55.3 ± 0.04 µg/mL (≈ 124 µM) | – | – | – | – | – | – | CC(=O)N(C(=O)OCc1ccccc1Cl)c1ccc(N=Cc2cc3ccccc3o2)cc1 [Compound 5d, 2-chlorobenzylacetyl(4-((benzofuran-2-ylmethylene)amino)phenyl)carbamate] | – | – | – | – | – | – | zone of inhibition [2]: 11 mm; zone of inhibition (A. niger [3]): 13.7 mm; zone of inhibition [4]: 10 mm; zone of inhibition [5]: 12 mm; zone of inhibition [6]: 13 mm; zone of inhibition [7]: 14 mm; MIC [8]: 40 µg/mL (≈ 89.5 µM); MIC (A. niger [9]): 25 µg/mL (≈ 55.9 µM); MIC [10]: 50 µg/mL (≈ 112 µM); MIC [11]: 30 µg/mL (≈ 67.1 µM); MIC [12]: 50 µg/mL (≈ 112 µM); MIC [13]: 50 µg/mL (≈ 112 µM)
3 | 53 ± 0.04 µg/mL (≈ 134 µM) | 49 ± 0.17 µg/mL (≈ 124 µM) | 75 µg/mL (≈ 189 µM) | 100 µg/mL (≈ 252 µM) | 100 µg/mL (≈ 252 µM) | 50 µg/mL (≈ 126 µM) | 100 µg/mL (≈ 252 µM) | 50 µg/mL (≈ 126 µM) | CC(=O)N(C(=O)c1ccccc1C)c1ccc(N=Cc2cc3ccccc3o2)cc1 [Compound 5f, N-acetyl-N-(4-((benzofuran-2-ylmethylene)amino)phenyl)-2-methylbenzamide] | 10.2 mm | 12 mm | 11 mm | 10 mm | 10 mm | 8 mm | melting point: 187 °C
4 | 87.4 ± 0.31 µg/mL (≈ 204 µM) | 79.2 ± 0.24 µg/mL (≈ 185 µM) | 20 µg/mL (≈ 46.8 µM) | 20 µg/mL (≈ 46.8 µM) | 25 µg/mL (≈ 58.5 µM) | 15 µg/mL (≈ 35.1 µM) | 25 µg/mL (≈ 58.5 µM) | 15 µg/mL (≈ 35.1 µM) | CC(=O)N(C(=O)c1ccc([N+](=O)[O-])cc1)c1ccc(N=Cc2cc3ccccc3o2)cc1 [Compound 5e, N-acetyl-N-(4-((benzofuran-2-ylmethylene)amino)phenyl)-4-nitrobenzamide] | 13.6 mm | 14.1 mm | 9 mm | 14 mm | 11 mm | 11 mm | melting point: 182 °C
5 | – | – | – | – | 5 µg/mL (≈ 8.6 µM) | 5 µg/mL (≈ 8.6 µM) | 5 µg/mL (≈ 8.6 µM) | 5 µg/mL (≈ 8.6 µM) | [H]/N=C(/N)N[C@H]1[C@H](O)[C@@H](O)[C@H](O[C@@H]2O[C@@H](C)[C@](O)(C=O)[C@H]2O[C@@H]2O[C@@H](CO)[C@H](O)[C@@H](O)[C@@H]2NC)[C@@H](N/C(N)=N\[H])[C@@H]1O [Streptomycin, streptomycin, reference compound] | – | – | 16.5 mm | 14.1 mm | 14 mm | 13.4 mm | –
6 | 95.3 ± 0.76 µg/mL (≈ 342 µM) | 85.1 ± 0.33 µg/mL (≈ 306 µM) | 75 µg/mL (≈ 269 µM) | 75 µg/mL (≈ 269 µM) | > 100 µg/mL | 75 µg/mL (≈ 269 µM) | > 100 µg/mL | 75 µg/mL (≈ 269 µM) | CC(=O)Nc1ccc(N=Cc2cc3ccccc3o2)cc1 [Compound 3, N-(4-((benzofuran-2-ylmethylene)amino)phenyl)acetamide] | 12.5 mm | 12.4 mm | 11 mm | 8 mm | 10 mm | 7 mm | –
7 | – | – | 5 µg/mL (≈ 16.3 µM) | 5 µg/mL (≈ 16.3 µM) | – | – | – | – | OC(Cn1cncn1)(Cn1cncn1)c1ccc(F)cc1F [Fluconazole, fluconazole, reference compound] | 19 mm | 16 mm | – | – | – | – | –

Row | SMILES | IC50 DPPH [1] | IC50 Superoxide [14] | MIC [8, 15] | MIC (A. niger [9]; [16]) | MIC [10, 17] | MIC [11, 18] | MIC [12, 19] | MIC [13, 20] | zone of inhibition at 100 µg/mL [2] | zone of inhibition at 100 µg/mL (A. niger [3]) | zone of inhibition at 100 µg/mL [4] | zone of inhibition at 100 µg/mL [5] | zone of inhibition at 100 µg/mL [6] | zone of inhibition at 100 µg/mL [7] | also measured
8 | COc1ccc(O)c(C(C)(C)C)c1 [BHA, butylated hydroxyanisole, reference compound] | – | 13.4 ± 0.29 µg/mL (≈ 74.3 µM) | – | – | – | – | – | – | – | – | – | – | – | – | –
